≈ marks a conversion by molar mass, not a printed value.
Tests used:
Assay type in all cases: functional
Escherichia coli [1] = test: Antimicrobial activity against Escherichia coli MTCC 443 assessed as diameter of growth inhibition zone at 250 ug/ml after 18-24 hr by agar cup diffusion method; conditions: read-out: DIZ
Trichophyton rubrum [2] = test: Antimicrobial activity against Trichophyton rubrum MTCC 296 assessed as diameter of growth inhibition zone at 100 ug/ml after 48-96 hr by agar cup diffusion method; conditions: read-out: DIZ
Escherichia coli [3] = test: Antimicrobial activity against Escherichia coli MTCC 443 assessed as diameter of growth inhibition zone at 100 ug/ml after 18-24 hr by agar cup diffusion method; conditions: read-out: DIZ
Aspergillus clavatus [4] = test: Antimicrobial activity against Aspergillus clavatus MTCC 1323 by agar cup diffusion method
Penicillium [5] = test: Antimicrobial activity against Penicillium wild strain assessed as diameter of growth inhibition zone at 25 ug/ml after 48-96 hr by agar cup diffusion method; conditions: read-out: DIZ
Streptococcus pyogenes [6] = test: Antimicrobial activity against Streptococcus pyogenes MTCC 442 assessed as diameter of growth inhibition zone at 100 ug/ml after 18-24 hr by agar cup diffusion method; conditions: read-out: DIZ
Pseudomonas aeruginosa [7] = test: Antimicrobial activity against Pseudomonas aeruginosa MTCC 1688 assessed as diameter of growth inhibition zone at 100 ug/ml after 18-24 hr by agar cup diffusion method; conditions: read-out: DIZ
Pseudomonas aeruginosa [8] = test: Antimicrobial activity against Pseudomonas aeruginosa MTCC 1688 by agar cup diffusion method
Candida albicans [9] = test: Antimicrobial activity against Candida albicans MTCC 227 assessed as diameter of growth inhibition zone at 250 ug/ml after 48-96 hr by agar cup diffusion method; conditions: read-out: DIZ
Aspergillus clavatus [10] = test: Antimicrobial activity against Aspergillus clavatus MTCC 1323 assessed as diameter of growth inhibition zone at 25 ug/ml after 48-96 hr by agar cup diffusion method; conditions: read-out: DIZ
Aspergillus clavatus [11] = test: Antimicrobial activity against Aspergillus clavatus MTCC 1323 assessed as diameter of growth inhibition zone at 100 ug/ml after 48-96 hr by agar cup diffusion method; conditions: read-out: DIZ
Pseudomonas aeruginosa [12] = test: Antimicrobial activity against Pseudomonas aeruginosa MTCC 1688 assessed as diameter of growth inhibition zone at 250 ug/ml after 18-24 hr by agar cup diffusion method; conditions: read-out: DIZ
Klebsiella pneumoniae [13] = test: Antimicrobial activity against Klebsiella pneumoniae MTCC 109 assessed as diameter of growth inhibition zone at 100 ug/ml after 18-24 hr by agar cup diffusion method; conditions: read-out: DIZ
Candida albicans [14] = test: Antimicrobial activity against Candida albicans MTCC 227 assessed as diameter of growth inhibition zone at 25 ug/ml after 48-96 hr by agar cup diffusion method; conditions: read-out: DIZ
Penicillium [15] = test: Antimicrobial activity against Penicillium wild strain by agar cup diffusion method
Pseudomonas aeruginosa [16] = test: Antimicrobial activity against Pseudomonas aeruginosa MTCC 1688 assessed as diameter of growth inhibition zone at 50 ug/ml after 18-24 hr by agar cup diffusion method; conditions: read-out: DIZ
Trichophyton rubrum [17] = test: Antimicrobial activity against Trichophyton rubrum MTCC 296 assessed as diameter of growth inhibition zone at 25 ug/ml after 48-96 hr by agar cup diffusion method; conditions: read-out: DIZ
Klebsiella pneumoniae [18] = test: Antimicrobial activity against Klebsiella pneumoniae MTCC 109 assessed as diameter of growth inhibition zone at 50 ug/ml after 18-24 hr by agar cup diffusion method; conditions: read-out: DIZ
Klebsiella pneumoniae [19] = test: Antimicrobial activity against Klebsiella pneumoniae MTCC 109 assessed as diameter of growth inhibition zone at 25 ug/ml after 18-24 hr by agar cup diffusion method; conditions: read-out: DIZ
Staphylococcus aureus [20] = test: Antimicrobial activity against Staphylococcus aureus MTCC 96 assessed as diameter of growth inhibition zone at 25 ug/ml after 18-24 hr by agar cup diffusion method; conditions: read-out: DIZ
Trichophyton rubrum [21] = test: Antimicrobial activity against Trichophyton rubrum MTCC 296 by agar cup diffusion method
Penicillium [22] = test: Antimicrobial activity against Penicillium wild strain assessed as diameter of growth inhibition zone at 100 ug/ml after 48-96 hr by agar cup diffusion method; conditions: read-out: DIZ
Escherichia coli [23] = test: Antimicrobial activity against Escherichia coli MTCC 443 assessed as diameter of growth inhibition zone at 25 ug/ml after 18-24 hr by agar cup diffusion method; conditions: read-out: DIZ
Penicillium [24] = test: Antimicrobial activity against Penicillium wild strain assessed as diameter of growth inhibition zone at 50 ug/ml after 48-96 hr by agar cup diffusion method; conditions: read-out: DIZ
Staphylococcus aureus [25] = test: Antimicrobial activity against Staphylococcus aureus MTCC 96 assessed as diameter of growth inhibition zone at 100 ug/ml after 18-24 hr by agar cup diffusion method; conditions: read-out: DIZ
Streptococcus pyogenes [26] = test: Antimicrobial activity against Streptococcus pyogenes MTCC 442 by agar cup diffusion method
Staphylococcus aureus [27] = test: Antimicrobial activity against Staphylococcus aureus MTCC 96 by agar cup diffusion method
Streptococcus pyogenes [28] = test: Antimicrobial activity against Streptococcus pyogenes MTCC 442 assessed as diameter of growth inhibition zone at 50 ug/ml after 18-24 hr by agar cup diffusion method; conditions: read-out: DIZ
Staphylococcus aureus [29] = test: Antimicrobial activity against Staphylococcus aureus MTCC 96 assessed as diameter of growth inhibition zone at 50 ug/ml after 18-24 hr by agar cup diffusion method; conditions: read-out: DIZ
Streptococcus pyogenes [30] = test: Antimicrobial activity against Streptococcus pyogenes MTCC 442 assessed as diameter of growth inhibition zone at 250 ug/ml after 18-24 hr by agar cup diffusion method; conditions: read-out: DIZ
Penicillium [31] = test: Antimicrobial activity against Penicillium wild strain assessed as diameter of growth inhibition zone at 250 ug/ml after 48-96 hr by agar cup diffusion method; conditions: read-out: DIZ
Candida albicans [32] = test: Antimicrobial activity against Candida albicans MTCC 227 assessed as diameter of growth inhibition zone at 50 ug/ml after 48-96 hr by agar cup diffusion method; conditions: read-out: DIZ
Staphylococcus aureus [33] = test: Antimicrobial activity against Staphylococcus aureus MTCC 96 assessed as diameter of growth inhibition zone at 250 ug/ml after 18-24 hr by agar cup diffusion method; conditions: read-out: DIZ
Streptococcus pyogenes [34] = test: Antimicrobial activity against Streptococcus pyogenes MTCC 442 assessed as diameter of growth inhibition zone at 25 ug/ml after 18-24 hr by agar cup diffusion method; conditions: read-out: DIZ
Pseudomonas aeruginosa [35] = test: Antimicrobial activity against Pseudomonas aeruginosa MTCC 1688 assessed as diameter of growth inhibition zone at 25 ug/ml after 18-24 hr by agar cup diffusion method; conditions: read-out: DIZ
Escherichia coli [36] = test: Antimicrobial activity against Escherichia coli MTCC 443 assessed as diameter of growth inhibition zone at 50 ug/ml after 18-24 hr by agar cup diffusion method; conditions: read-out: DIZ
Candida albicans [37] = test: Antimicrobial activity against Candida albicans MTCC 227 by agar cup diffusion method
Candida albicans [38] = test: Antimicrobial activity against Candida albicans MTCC 227 assessed as diameter of growth inhibition zone at 100 ug/ml after 48-96 hr by agar cup diffusion method; conditions: read-out: DIZ
Escherichia coli [39] = test: Antimicrobial activity against Escherichia coli MTCC 443 by agar cup diffusion method
Trichophyton rubrum [40] = test: Antimicrobial activity against Trichophyton rubrum MTCC 296 assessed as diameter of growth inhibition zone at 250 ug/ml after 48-96 hr by agar cup diffusion method; conditions: read-out: DIZ
Aspergillus clavatus [41] = test: Antimicrobial activity against Aspergillus clavatus MTCC 1323 assessed as diameter of growth inhibition zone at 250 ug/ml after 48-96 hr by agar cup diffusion method; conditions: read-out: DIZ
Klebsiella pneumoniae [42] = test: Antimicrobial activity against Klebsiella pneumoniae MTCC 109 by agar cup diffusion method
Klebsiella pneumoniae [43] = test: Antimicrobial activity against Klebsiella pneumoniae MTCC 109 assessed as diameter of growth inhibition zone at 250 ug/ml after 18-24 hr by agar cup diffusion method; conditions: read-out: DIZ
Trichophyton rubrum [44] = test: Antimicrobial activity against Trichophyton rubrum MTCC 296 assessed as diameter of growth inhibition zone at 50 ug/ml after 48-96 hr by agar cup diffusion method; conditions: read-out: DIZ
Aspergillus clavatus [45] = test: Antimicrobial activity against Aspergillus clavatus MTCC 1323 assessed as diameter of growth inhibition zone at 50 ug/ml after 48-96 hr by agar cup diffusion method; conditions: read-out: DIZ

For `O=C(/C=C/c1cccc([N+](=O)[O-])c1)C1C(=O)NC(=S)NC1=O`, the zone of inhibition at 250 µg/mL (Escherichia coli [1]) was 18 mm, the zone of inhibition at 100 µg/mL (Trichophyton rubrum [2]) was 22 mm and the zone of inhibition at 100 µg/mL (Escherichia coli [3]) was 18 mm. The MFC (Aspergillus clavatus [4]) was 1000 µg/mL (≈ 3130 µM), the MIC (Aspergillus clavatus [4]) was 1000 µg/mL (≈ 3130 µM) and the zone of inhibition at 25 µg/mL (Penicillium [5]) was 18 mm. For the same compound, the zone of inhibition at 100 µg/mL (Streptococcus pyogenes [6]) was 18 mm, the zone of inhibition at 100 µg/mL (Pseudomonas aeruginosa [7]) was 17 mm and the MBC (Pseudomonas aeruginosa [8]) was 200 µg/mL (≈ 626 µM). For the same compound, the MIC (Pseudomonas aeruginosa [8]) was 125 µg/mL (≈ 391 µM), the zone of inhibition at 250 µg/mL (Candida albicans [9]) was 24 mm and the zone of inhibition at 25 µg/mL (Aspergillus clavatus [10]) was 20 mm. The zone of inhibition at 100 µg/mL (Aspergillus clavatus [11]) was 22 mm, the zone of inhibition at 250 µg/mL (Pseudomonas aeruginosa [12]) was 19 mm and the zone of inhibition at 100 µg/mL (Klebsiella pneumoniae [13]) was 17 mm. For the same compound, the zone of inhibition at 25 µg/mL (Candida albicans [14]) was 21 mm, the MFC (Penicillium [15]) was 1000 µg/mL (≈ 3130 µM) and the MIC (Penicillium [15]) was 1000 µg/mL (≈ 3130 µM). It also gave a zone of inhibition at 50 µg/mL (Pseudomonas aeruginosa [16]) of 16 mm, a zone of inhibition at 25 µg/mL (Trichophyton rubrum [17]) of 18 mm and a zone of inhibition at 50 µg/mL (Klebsiella pneumoniae [18]) of 14 mm. The zone of inhibition at 25 µg/mL (Klebsiella pneumoniae [19]) was 10 mm, the zone of inhibition at 25 µg/mL (Staphylococcus aureus [20]) was 14 mm and the MFC (Trichophyton rubrum [21]) was 1000 µg/mL (≈ 3130 µM). It also gave an MIC (Trichophyton rubrum [21]) of 1000 µg/mL (≈ 3130 µM), a zone of inhibition at 100 µg/mL (Penicillium [22]) of 21 mm and a zone of inhibition at 25 µg/mL (Escherichia coli [23]) of 15 mm. For the same compound, the zone of inhibition at 50 µg/mL (Penicillium [24]) was 20 mm, the zone of inhibition at 100 µg/mL (Staphylococcus aureus [25]) was 17 mm and the MBC (Streptococcus pyogenes [26]) was 250 µg/mL (≈ 783 µM). The MIC (Streptococcus pyogenes [26]) was 200 µg/mL (≈ 626 µM), the MBC (Staphylococcus aureus [27]) was 250 µg/mL (≈ 783 µM) and the MIC (Staphylococcus aureus [27]) was 200 µg/mL (≈ 626 µM). The zone of inhibition at 50 µg/mL (Streptococcus pyogenes [28]) was 17 mm, the zone of inhibition at 50 µg/mL (Staphylococcus aureus [29]) was 16 mm and the zone of inhibition at 250 µg/mL (Streptococcus pyogenes [30]) was 18 mm. For the same compound, the zone of inhibition at 250 µg/mL (Penicillium [31]) was 22 mm, the zone of inhibition at 50 µg/mL (Candida albicans [32]) was 22 mm and the zone of inhibition at 250 µg/mL (Staphylococcus aureus [33]) was 19 mm. It also gave a zone of inhibition at 25 µg/mL (Streptococcus pyogenes [34]) of 15 mm, a zone of inhibition at 25 µg/mL (Pseudomonas aeruginosa [35]) of 14 mm and a zone of inhibition at 50 µg/mL (Escherichia coli [36]) of 17 mm. The MFC (Candida albicans [37]) was 1000 µg/mL (≈ 3130 µM), the MIC (Candida albicans [37]) was 1000 µg/mL (≈ 3130 µM) and the zone of inhibition at 100 µg/mL (Candida albicans [38]) was 23 mm. For the same compound, the MBC (Escherichia coli [39]) was 100 µg/mL (≈ 313 µM), the MIC (Escherichia coli [39]) was 100 µg/mL (≈ 313 µM) and the zone of inhibition at 250 µg/mL (Trichophyton rubrum [40]) was 27 mm. It also gave a zone of inhibition at 250 µg/mL (Aspergillus clavatus [41]) of 24 mm, an MBC (Klebsiella pneumoniae [42]) of 100 µg/mL (≈ 313 µM) and an MIC (Klebsiella pneumoniae [42]) of 62.5 µg/mL (≈ 196 µM). For the same compound, the zone of inhibition at 250 µg/mL (Klebsiella pneumoniae [43]) was 18 mm, the zone of inhibition at 50 µg/mL (Trichophyton rubrum [44]) was 21 mm and the zone of inhibition at 50 µg/mL (Aspergillus clavatus [45]) was 22 mm.

Reference: ChEMBL document CHEMBL3044736, “Synthesis, characterization, solvatochromic properties, and antimicrobial evaluation of 5-acetyl-2-thioxo-dihydro-pyrimidine-4,6-dione-based chalcones” (2013)
